These compounds were tested on Human immunodeficiency virus 1 (assay: Concentration required for 50% protection of MT-4 cells against the cytopathic effect of HIV-1). Conditions: Human immunodeficiency virus 1, MT4.
Format: functional, organism-based

Row | Structure (SMILES) | IC50 [nM]
1 | CC(C)=CCN1Cc2cc(Cl)c(Cl)c3nc(S)n(c23)C[C@@H]1C | 25.5
2 | COc1ccc2c3c1[nH]c(=O)n3C[C@H](C)N(CC=C(C)C)C2 | 6630
3 | C[C@H]1Cn2c(=O)[nH]c3cc(N)cc(c32)CN1CC1CC1 | 60600
4 | CC(=O)Nc1ccc2nc(O)n3c2c1CN(CC1CC1)[C@@H](C)C3 | > 796000
5 | CCc1ccc2nc(O)n3c2c1CN(CC=C(C)C)[C@@H](C)C3 | > 5940
6 | CC(C)=CCN1Cc2c(C)ncc3nc(O)n(c23)CC1C (stereo unspecified) | 872000
7 | CC(C)=CCN1Cc2cc(F)cc3nc(S)n(c23)C[C@@H]1C | 25
8 | CCC(=CCN1Cc2c(C)ncc3nc(S)n(c23)CC1C)CC (stereo unspecified) | 243
9 | CC(C)=CCN1Cc2c(Br)ccc3nc(S)n(c23)C[C@@H]1C | 3
10 | CSc1ccc2[nH]c(=S)n3c2c1CN(CC=C(C)C)[C@@H](C)C3 | 5
11 | C#Cc1ccc2nc(O)n3c2c1CN(CC=C(C)C)[C@@H](C)C3 | 438
12 | CC(C)=CCN1Cc2c(F)ccc3nc(S)n(c23)C[C@@H]1C | 5.8
13 | CC(=O)Nc1cc2c3c(c1)[nH]c(=O)n3C[C@H](C)N(CC1CC1)C2 | 159000
14 | CC(C)=CCN1Cc2c(I)ccc3[nH]c(=O)n(c23)C[C@@H]1C | 88
15 | C[C@H]1Cn2c(=O)[nH]c3ccc(N)c(c32)CN1CC1CC1 | 849000
16 | CC(C)=CCN1Cc2cc(Cl)cc3[nH]c(=S)n(c23)C[C@@H]1C | 34
17 | CC(C)=CCN1Cc2c(C)ccc3nc(O)n(c23)C[C@@H]1C | 989
18 | C#Cc1ccc2nc(S)n3c2c1CN(CC=C(C)C)[C@@H](C)C3 | 29.6
19 | CC(C)=CCN1Cc2c(C#N)ccc3nc(S)n(c23)C[C@@H]1C | 56.3
20 | C[C@H]1Cn2c(=S)[nH]c3cc([N+](=O)[O-])cc(c32)CN1CC1CC1 | 2450

Row | Structure (SMILES) | IC50 [nM]
21 | Cc1cn([C@H]2C[C@H](N=[N+]=[N-])[C@@H](CO)O2)c(=O)[nH]c1=O [ZIDOVUDINE] | 4.1
22 | CCC(=CCN1Cc2cc(C(C)(C)C)cc3nc(O)n(c23)C[C@@H]1C)CC | 314
23 | CC(C)=CCN1Cc2c(C#N)ccc3nc(O)n(c23)C[C@@H]1C | 1140
24 | CC(C)=CCN1Cc2cc(C(F)(F)F)cc3nc(O)n(c23)C[C@@H]1C | 5920
25 | CC(C)=CCN1Cc2ccc(Br)c3nc(S)n(c23)C[C@@H]1C | 1080
26 | C[C@H]1Cn2c(=O)[nH]c3cc([N+](=O)[O-])cc(c32)CN1CC1CC1 | 33400
27 | CC(C)=CCN1Cc2c(C=O)ccc3nc(S)n(c23)C[C@@H]1C | 188
28 | CC(C)=CCN1Cc2c(Cl)ccc3[nH]c(=S)n(c23)C[C@@H]1C [TIVIRAPINE] | 4.3
29 | CC(C)=CCN1Cc2c(Br)ccc3nc(O)n(c23)C[C@@H]1C | 47.3
30 | CC(C)=CCN1Cc2cc(C(F)(F)F)cc3nc(S)n(c23)C[C@@H]1C | 485
31 | CC(C)=CCN1Cc2c(C(N)=O)ccc3[nH]c(=O)n(c23)C[C@@H]1C | 6360
32 | CC(C)=CCN1Cc2c(I)ccc3[nH]c(=S)n(c23)C[C@@H]1C | 47.4
33 | CC(C)=CCN1Cc2c(C)ccc3nc(S)n(c23)C[C@@H]1C | 13.6
34 | C[C@H]1Cn2c(=O)[nH]c3ccc(N(C)C)c(c32)CN1CC1CC1 | 6650
35 | COc1ccc2[nH]c(=S)n3c2c1CN(CC=C(C)C)[C@@H](C)C3 | 33.9
36 | COc1ccc2c3c1[nH]c(=S)n3C[C@H](C)N(CC=C(C)C)C2 | 4720
37 | C[C@H]1Cn2c(=O)[nH]c3cc(N(C)C)cc(c32)CN1CC1CC1 | 6650
38 | Cc1ncc2nc(O)n3c2c1CN(CC1CC1)C(C)C3 (stereo unspecified) | 596000
39 | CCC(=CCN1Cc2c(C)ncc3nc(O)n(c23)CC1C)CC (stereo unspecified) | > 2000
40 | CCOc1ccc2[nH]c(=S)n3c2c1CN(CC=C(C)C)[C@@H](C)C3 | 95.9

What follows are compounds tested on MT4 (assay: Effective concentration of compound required to achieve 50% protection of MT-4 cells against the cytopathic effect of HIV-1). Conditions: Homo sapiens.
Format: functional, cell-based

Row | Structure (SMILES) | IC50 [nM]
41 | CC(C)=CCN1Cc2cccc3[nH]c(=S)n(c23)C[C@@H]1C | 44

From ChEMBL document CHEMBL1128253, “Synthesis and anti-HIV-1 activity of 4,5,6,7-tetrahydro-5-methylimidazo-[4,5,1-jk][1,4]benzodiazepin- 2(1H)-one (TlBO) derivatives. 4” (J Med Chem, 1995)
